Source: US20140154269A1, “TARGETED NANOVECTORS AND THEIR USE FOR TREATMENT OF BRAIN TUMORS” (The Methodist Hospital Research Institute, priority 2011, published 2014)

Legend:
[1] = cited from earlier work
[2] = tested on: immortalized human glioblastoma cell cultures; details: cited from earlier work
[3] = tested on: primary GBM cell cultures; test: Cell viability measurements (ddTUNEL, Dead Green, Hoechst staining) in primary GBM cultures; details: 24 h; PEG-HCCs 2.6 nM, GFAPAB 3.9 nM, SN-38 2 μM
Procedure: Total, viable, and dead glioma cell numbers in confluent primary GBM cell cultures were measured using ddTUNEL (a quantitative assay for 3′ OH DNA ends), Dead Green, and Hoechst stains. Cells were treated with GFAPAB/SN-38/PEG-HCCs or saline for 24 h.
Primary human glioblastoma or astrocytoma cells were prepared from tumors within 10 min of their excision. The tumors were broken up using a pipette and then grown in DMEM, 20% FBS, GlutaMax-I, sodium pyruvate and Pen/Strep, for 2 weeks. After this time, and in all presented data, the same media was used, except that sodium pyruvate was omitted. […] GBM and NHA were grown to confluency in the appropriate media on Costar 96-well growth plates (Corning, N.Y.C, NY, USA). […] Cells were grown for 24 h in the presence or absence of all effectors, in a total volume of 250 μL.
The biotinylated ddUTP and biotinylated blunt ended oligonucleotide probe was visualized using Texas Red labeled avidin. […]
Cells were counted at 4× magnification using a Nikon Eclipse TE2000-E fluorescent microscope equipped with a CoolSnap ES digital camera system (Roper Scientific) containing an CCD-1300-Y/HS 1392×1040 imaging array cooled by a Peltier device. Images were recorded using Nikon NIS-Elements software as JEP2000 files.

| Structure (SMILES) | Log P [1] | LD50 range reported by others [2] | toxicity towards GBM cells (average living cells from ddTUNEL, Dead Green, Hoechst) [3] |
| --- | --- | --- | --- |
| CCc1c2c(nc3ccc(O)cc13)-c1cc3c(c(=O)n1C2)COC(=O)[C@]3(O)CC [SN-38] | 1.87 | 5 to 10 µM | not toxic |
| CC[C@]1(O)C[C@@H]2CN(CCc3c([nH]c4ccccc34)[C@@](C(=O)OC)(c3cc4c(cc3OC)N(C)[C@H]3[C@@](O)(C(=O)OC)[C@H](OC(C)=O)[C@]5(CC)C=CCN6CC[C@]43[C@@H]65)C2)C1 [Vin, Vinblastine] | 4.8 |  |  |
